Test results: patent EP0308020A2, “5-(aryl and heteroaryl)-6-(aryl and heteroaryl)-1,2-dihydro-2-oxo 3-pyridinecarboxylic acids and derivatives thereof” (Merck & Co., Inc., priority 1987, dated 1989)
In brackets after ≈: the same amount, converted by molar mass. Like-named read-outs stand apart in the source and are kept apart here.

What was measured:
Assay in all cases: Agar diffusion assay for antibacterial activity (MIC)
Type in all cases: cell-based
[1] = system: Escherichia coli MB 2891; conditions: read-out: Minimum inhibitory conc.
Experimental: (§1) A stock solution of each test compound was prepared at a concentration of 1.28 mg/ml using sterile distilled water. After initial solubilization, two-fold dilutions were prepared and added as one-ml portions to 15 x 100 mm petri plates. A nine-ml portion of trypticase soy agar (TSA) was melted and added to each plate. The test compound and agar were mixed and allowed to cool. […] Controls were prepared using norfloxacin, coumermycin A-1, or novobiocin, and solvent.
(§2) Each plate was inoculated using a multipoint inoculator with 10⁵ colony-forming units (cfu) of the appropriate bacterium. Each bacterium was stored at -70°C before use and cultured in trypticase soy broth (TSB) at 35°C for 18 hours. The cultures, containing ca. 10⁹ cfu/ml, were diluted as necessary with TSB to provide concentrations of 10⁵ cfu/inoculation spot. The test plates were then incubated at 35°C for 20 hours. Minimum inhibitory concentrations (MIC) for each compound was the lowest concentration that allowed no growth, a barely visible haze, of five or fewer discrete colonies.
(§3) Table VI includes biological test results for representative compounds of this invention using the agar diffusion assay described above. The particular bacterial strains used are representative of organisms for which the compounds are useful as antibacterial agents.

[2] = system: Escherichia coli MB 5157; conditions: read-out: Minimum inhibitory conc.
Experimental: as §1, §2, §3

[3] = system: Escherichia coli MB 5158 (Norfloxacin-resistant strain); conditions: 20 h, read-out: Minimum inhibitory conc.
Experimental: as §1, §2, §3

[4] = system: Klebsiella pneumoniae MB 4005; conditions: read-out: Minimum inhibitory conc.
Experimental: as §1, §2, §3

[5] = system: Proteus mirabilis MB 2830; conditions: read-out: Minimum inhibitory conc.
Experimental: as §1, §2, §3

[6] = system: Pseudomonas aeruginosa MB 2835; conditions: MB2835, Ps. aer., strain MB 2835, trypticase soy agar, 10⁵ cfu, 35°C, 20 hours, read-out: Minimum inhibitory conc.
Experimental: as §1, §2, §3

[7] = system: Pseudomonas aeruginosa MB 5160 (Norfloxacin-resistant strain); conditions: 20 h, read-out: Minimum inhibitory conc.
Experimental: as §1, §2, §3

[8] = system: Staphylococcus aureus MB 2865; conditions: read-out: Minimum inhibitory conc.
Experimental: as §1, §2, §3

[9] = system: Staphylococcus aureus MB 4310; conditions: read-out: Minimum inhibitory conc.
Experimental: as §1, §2, §3

[10] = system: Streptococcus faecalis MB 2864; conditions: Enterococcus faecalis, read-out: Minimum inhibitory conc.
Experimental: as §1, §2, §3

[11] = MB2891, E. coli, strain MB 2891, trypticase soy agar, 10⁵ cfu, 35°C, 20 hours
[12] = MB5157, E. coli, strain MB 5157, trypticase soy agar, 10⁵ cfu, 35°C, 20 hours
[13] = MB4005, K. pneu., strain MB 4005, trypticase soy agar, 10⁵ cfu, 35°C, 20 hours
[14] = MB2865, St. aur., strain MB 2865, trypticase soy agar, 10⁵ cfu, 35°C, 20 hours
[15] = MB4310, St. aur., strain MB 4310, trypticase soy agar, 10⁵ cfu, 35°C, 20 hours
[16] = MB2864, Str. fae., strain MB 2864, trypticase soy agar, 10⁵ cfu, 35°C, 20 hours
[17] = MB2830, Pr. mir., strain MB 2830, trypticase soy agar, 10⁵ cfu, 35°C, 20 hours

Row | SMILES | MIC [1, 11] [µg/mL] | MIC [2, 12] [µg/mL] | MIC [3] [µg/mL] | MIC [4, 13] [µg/mL] | MIC ([5]; MB2830, 20 h) [µg/mL] | MIC [6] [µg/mL] | MIC [7] [µg/mL] | MIC [8, 14] [µg/mL] | MIC [9, 15] [µg/mL] | MIC [10, 16] [µg/mL] | MIC [5, 17] [µg/mL] | MIC ([1]; MB2891, 20 h) [µg/mL] | MIC ([2]; MB5157, 20 h) [µg/mL] | MIC ([4]; MB4005, 20 h) [µg/mL] | MIC ([8]; MB2865, 20 h) [µg/mL] | MIC ([9]; MB4310, 20 h) [µg/mL] | MIC ([10]; MB2864, 20 h) [µg/mL]
1 | CN(C)c1ccc(-c2[nH]c(=O)c(C(=O)O)cc2-c2ccc(O)cc2)cc1F [Example 34] | 4 (≈ 10.9 µM) | 16 (≈ 43.4 µM) | > 128 | 16 (≈ 43.4 µM) | > 128 | > 128 | > 128 | 2 (≈ 5.43 µM) | 8 (≈ 21.7 µM) | 16 (≈ 43.4 µM) | – | – | – | – | – | – | –
2 | CSc1ccc(-c2[nH]c(=O)c(C(=O)O)cc2-c2ccc(F)cc2)cc1 [Example 36, 5-(4-fluorophenyl)-1,2-dihydro-6-[4-(methylthio)phenyl]-2-oxo-3-pyridine carboxylic acid] | 64 (≈ 180 µM) | 16 (≈ 45 µM) | > 128 | 16 (≈ 45 µM) | > 128 | > 128 | > 128 | 8 (≈ 22.5 µM) | 8 (≈ 22.5 µM) | 64 (≈ 180 µM) | – | – | – | – | – | – | –
3 | C[N+](C)([O-])c1ccc(-c2[nH]c(=O)c(C(=O)O)cc2-c2ccc(F)cc2)cc1 [Example 49] | 32 (≈ 86.9 µM) | 4 (≈ 10.9 µM) | > 128 | 8 (≈ 21.7 µM) | – | > 128 | > 128 | 1 (≈ 2.71 µM) | 0.5 (≈ 1.36 µM) | 16 (≈ 43.4 µM) | 64 (≈ 174 µM) | – | – | – | – | – | –
4 | O=C(O)c1cc(-c2ccc(F)cc2)c(-c2ccc(N3CCCCC3)cc2)[nH]c1=O [Example 42] | – | – | > 128 | – | > 128 | > 128 | > 128 | 1 (≈ 2.55 µM) | 1 (≈ 2.55 µM) | 64 (≈ 163 µM) | – | > 128 | > 128 | > 128 | – | – | –
5 | C[S+]([O-])c1ccc(-c2[nH]c(=O)c(C(=O)O)cc2-c2ccc(F)cc2)cc1 (stereo not drawn) [Example 48] | – | – | > 128 | – | > 128 | > 128 | > 128 | – | – | – | – | > 128 | > 128 | > 128 | > 128 | > 128 | > 128
6 | CN(C)c1ccc(-c2c(-c3ccc(O)cc3)cc(C(=O)O)c(=O)n2C)cc1 [Example 51, 6-[4-(Dimethylamino)phenyl]-1,2-dihydro-5-(4-hydroxyphenyl)-1-methyl-2-oxo-3-pyridinecarboxylic acid] | 0.5 (≈ 1.37 µM) | 2 (≈ 5.49 µM) | > 128 | 16 (≈ 43.9 µM) | – | > 128 | > 128 | 1 (≈ 2.74 µM) | 0.5 (≈ 1.37 µM) | 128 (≈ 351 µM) | 32 (≈ 87.8 µM) | – | – | – | – | – | –
7 | CN(C)c1ccc(-c2[nH]c(=O)c(C(=O)O)cc2-c2ccc(O)cc2)cc1 [Example 30] | 0.25 (≈ 0.714 µM) | 0.25 (≈ 0.714 µM) | > 128 | < 0.25 | – | > 128 | > 128 | 0.25 (≈ 0.714 µM) | 0.25 (≈ 0.714 µM) | 0.5 (≈ 1.43 µM) | 8 (≈ 22.8 µM) | – | – | – | – | – | –
8 | O=C(O)c1cc(-c2ccc(F)cc2)c(-c2ccc(N3CCOCC3)cc2)[nH]c1=O [Example 43] | 16 (≈ 40.6 µM) | 8 (≈ 20.3 µM) | > 128 | 16 (≈ 40.6 µM) | – | > 128 | > 128 | 4 (≈ 10.1 µM) | 4 (≈ 10.1 µM) | 64 (≈ 162 µM) | 128 (≈ 325 µM) | – | – | – | – | – | –
9 | CN(C)c1ccc(-c2[nH]c(=O)c(C(=O)O)cc2-c2ccc(F)cc2)cc1 [Example 33] | 16 (≈ 45.4 µM) | 8 (≈ 22.7 µM) | > 128 | 8 (≈ 22.7 µM) | – | > 128 | > 128 | 2 (≈ 5.68 µM) | 2 (≈ 5.68 µM) | 128 (≈ 363 µM) | 128 (≈ 363 µM) | – | – | – | – | – | –
10 | COc1ccc(-c2[nH]c(=O)c(C(=O)O)cc2-c2ccc(F)cc2)cc1 [Example 32, 5-(4-Fluorophenyl)-1,2-dihydro-6-(4-methoxyphenyl)-2-oxo-3-pyridinecarboxylic acid] | 16 (≈ 47.2 µM) | 4 (≈ 11.8 µM) | > 128 | 1 (≈ 2.95 µM) | – | > 128 | > 128 | 2 (≈ 5.89 µM) | 1 (≈ 2.95 µM) | 16 (≈ 47.2 µM) | 32 (≈ 94.3 µM) | – | – | – | – | – | –
11 | C[N+](C)([O-])c1ccc(-c2[nH]c(=O)c(C(=O)O)cc2-c2ccc(O)cc2)cc1 [Example 50] | 8 (≈ 21.8 µM) | 8 (≈ 21.8 µM) | > 128 | 16 (≈ 43.7 µM) | – | > 128 | > 128 | 4 (≈ 10.9 µM) | 8 (≈ 21.8 µM) | 16 (≈ 43.7 µM) | 128 (≈ 349 µM) | – | – | – | – | – | –
12 | CN(C)c1ccc(-c2c(-c3ccc(F)cc3)cc(C(=O)O)c(=O)n2C)cc1 [Example 52] | 2 (≈ 5.46 µM) | 4 (≈ 10.9 µM) | > 128 | 64 (≈ 175 µM) | > 128 | > 128 | > 128 | 2 (≈ 5.46 µM) | 2 (≈ 5.46 µM) | – | – | – | – | – | – | – | > 128
13 | CN1CCN(c2ccc(-c3[nH]c(=O)c(C(=O)O)cc3-c3ccc(F)cc3)cc2)CC1 [Example 44] | 8 (≈ 19.6 µM) | 16 (≈ 39.3 µM) | > 128 | 32 (≈ 78.5 µM) | > 128 | > 128 | > 128 | 32 (≈ 78.5 µM) | 16 (≈ 39.3 µM) | 128 (≈ 314 µM) | – | – | – | – | – | – | –
14 | CN(C)c1ccc(-c2[nH]c(=O)c(C(=O)O)cc2-c2ccc(O)cc2)c(F)c1 [Example 35] | 1 (≈ 2.71 µM) | 1 (≈ 2.71 µM) | > 128 | 1 (≈ 2.71 µM) | – | > 128 | > 128 | 0.5 (≈ 1.36 µM) | 1 (≈ 2.71 µM) | 4 (≈ 10.9 µM) | 32 (≈ 86.9 µM) | – | – | – | – | – | –
15 | CS(=O)(=O)c1ccc(-c2[nH]c(=O)c(C(=O)O)cc2-c2ccc(F)cc2)cc1 [Example 47, 5-(4-Fluorophenyl)-1,2-dihydro-6-[4-(methylsulfonyl)phenyl]-2-oxo-3-pyridinecarboxylic acid] | – | – | > 128 | – | > 128 | > 128 | > 128 | – | – | – | – | > 128 | > 128 | > 128 | > 128 | > 128 | > 128
